From patent US9464071B2 (priority 2010, dated 2016) come the findings set out here.

Values joined by “and” are separate entries in the source; they are usually repeats but may differ in a detail not shown here. Equal values may be shown once. Where a name gives a salt, the structure may show the parent alone.

By melting point is commonly meant the temperature, or range, at which the solid turns liquid. For `CCS(=O)(=O)NCCN(c1cc(OC)cc(OC)c1)c1ccc2ncc(-c3cnn(C)c3)nc2c1` [Compound 335], the melting point stood at 122.79 °C. As for `COCCNC(=O)C(C)(C)n1cc(-c2cnc3ccc(N(CC4CC4)c4cc(OC)cc(OC)c4)cc3n2)cn1`, the melting point was determined as 104.64 °C.

`CN(C)c1cccc(N(CC2CC2)c2ccc3ncc(-c4cnn(C)c4)nc3c2)c1` [Compound 883] returned a melting point of 194 °C.

`COc1cc(OC)cc(N(Cc2ccncc2)c2ccc3ncc(-c4cnn(C)c4)nc3c2)c1` [Compound 569] gave a melting point of 139 °C. As to `COc1cc(OC)cc(N(CC2CC2)c2ccc3ncc(-c4cnn(CC(=O)N5CCC(O)C5)c4)nc3c2)c1` (stereo not shown), the melting point was 203.4 °C and 203.41 °C. Molecule `CNCCN(c1cc(OC)cc(OC)c1)c1ccc2ncc(-c3cnn(CCO)c3)nc2c1` had a melting point of 131.93 °C. As to `COc1cc(OC)cc(N(CC(C)(C)O)c2ccc3ncc(-c4cnn(C)c4)nc3c2)c1` [Compound 78], the melting point was 162 °C and 162.1 °C.

With `COc1cc(OC)cc(N(CCO)c2ccc3ncc(-c4cn[nH]c4)nc3c2)c1` [Compound 2], the melting point was 169.26 °C and 169 °C. In the case of `COc1cc(OC)cc(N(CC#CCO)c2ccc3ncc(-c4cnn(C)c4)nc3c2)c1` it was 157 °C and 156 °C. As for `COc1cc(OC)cc(N(CCNC(C)C)c2ccc3ncc(-c4cnn(CCC#N)c4)nc3c2)c1` [Compound 642], the melting point worked out at 127 °C.

`COc1cc(OC)cc(N(CC2COCC(C)(C)N2)c2ccc3ncc(-c4cnn(C)c4)nc3c2)c1` (stereo not shown): the melting point was 157 °C. Next, `COc1cc(OCCO)cc(N(CCN)c2ccc3ncc(-c4cnn(C)c4)nc3c2)c1`: 165 °C; `COc1cc(OC)cc(N(CCNCCC#N)c2ccc3ncc(-c4cnn(C)c4)nc3c2)c1` [Compound 140, 3-[(2-{(3,5-Dimethoxyphenyl)[3-(1-methyl-1H-pyrazol-4-yl)quinoxalin-6-yl]amino}ethyl)amino]propanenitrile]: 123.19 °C; `COc1cc(OC)cc(N(CCN2C(=O)c3ccccc3C2=O)c2ccc3ncc(-c4cnn(C)c4)nc3c2)c1`: 215.88 °C. In the case of `COc1cc(OC)cc(N(CCn2cccc2)c2ccc3ncc(-c4cnn(C)c4)nc3c2)c1` (as salt: HCl) it was 130 °C; in that of `COc1cc(OC)cc(N(CC2CC2)c2ccc3ncc(-c4cnn(S(C)(=O)=O)c4)nc3c2)c1`, 207.88 °C.

`COc1cc(OC)cc(N(CC2CC2)c2ccc3ncc(-c4cnn(CC(=O)N(C)C)c4)nc3c2)c1` [Compound 212] registered a melting point of 145.81 °C. `COc1cc(OC)cc(N(CC2CCN(c3nccc(OC)n3)CC2)c2ccc3ncc(-c4cnn(C)c4)nc3c2)c1` [Compound 839] returned a melting point of 126 °C. The molecule `CNC(=O)Cn1cc(-c2cnc3ccc(N(CCCNC(C)C)c4cc(OC)cc(OC)c4)cc3n2)cn1` [Compound 615] showed a melting point of 134 °C.

As for `COc1cc(OC)cc(N(Cc2ccc(Cl)s2)c2ccc3ncc(-c4cn[nH]c4)nc3c2)c1` [Compound 323], the melting point turned out to be 166.37 °C. In the case of `COc1cccnc1C#CCN(c1ccc2ncc(-c3cnn(C)c3)nc2c1)c1c(Cl)c(OC)cc(OC)c1Cl` [Compound 785] it was 190 °C; in that of `CNc1cccc(CN(c2cc(OC)cc(OC)c2)c2ccc3ncc(-c4cnn(C)c4)nc3c2)n1`, 181 °C and 180 °C; in that of `COc1cc(F)cc(N(CC2CC2)c2ccc3ncc(-c4cnn(C)c4)nc3c2)c1`, 142 °C. In the case of `COCC(O)CN(c1cc(OC)cc(OC)c1)c1ccc2ncc(-c3cnn(C(C)C)c3)nc2c1` (single isomer, unassigned) (as salt: HCl), the melting point is 95 °C. Next, `COc1cc(OC)cc(N(CC(O)CN2CCC(F)(F)C2)c2ccc3ncc(-c4cnn(C)c4)nc3c2)c1` (stereo not shown) [Compound 374]: 206.48 °C; `COc1cc(OC)cc(N(CCNS(C)(=O)=O)c2ccc3ncc(-c4cnn(C)c4)nc3c2)c1` [Compound 262]: 130.64 °C. Next, `COc1cc(OC)cc(N(CCN)c2ccc3ncc(-c4cn[nH]c4)nc3c2)c1`: 184 °C; `COc1cc(OC)cc(N(CC2OCCN(C(C)C)C2=O)c2ccc3ncc(-c4cnn(C)c4)nc3c2)c1` (stereo not shown): 187 °C.

As to `COc1ccc(OC)c(N(CCN)c2ccc3ncc(-c4cn[nH]c4)nc3c2)c1` [Compound 438], the melting point came out at 140.67 °C. In the case of `COc1cc(O)cc(N(CCCO)c2ccc3ncc(-c4cn[nH]c4)nc3c2)c1` it was 125 °C.

As for `COc1cc(OC)cc(N(CCN(Cc2ccccc2N)C(C)C)c2ccc3ncc(-c4cnn(C)c4)nc3c2)c1`, the melting point amounted to 70 °C. The molecule `CCn1cc(-c2cnc3ccc(N(CCCN4CCCC4=O)c4cc(OC)cc(OC)c4)cc3n2)cn1` (as salt: HCl) showed a melting point of 197 °C.

With `CNC(=O)Cn1cc(-c2cnc3ccc(N(CCN)c4cc(OC)cc(OC)c4)cc3n2)cn1` [Compound 34], the melting point is 174 °C and 173.67 °C. Molecule `COc1cc(OC)cc(N(CCNC(C)C)c2ccc3ncc(-c4cnn(CC5CCOCC5)c4)nc3c2)c1` (as salt: HCl) showed a melting point of 166 °C.

Turning to `COc1cc(O)cc(N(CCN)c2ccc3ncc(-c4cnn(C)c4)nc3c2)c1`, the melting point turned out to be 186 °C. In the case of `COc1cc(OC)cc(N(CC(F)CN)c2ccc3ncc(-c4cnn(C)c4)nc3c2)c1` (stereo not shown) it was 168 °C.

`COc1cc(OC)cc(N(CCC(C)(C)O)c2ccc3ncc(-c4cnn(C)c4)nc3c2)c1` [Compound 141, 4-{(3,5-Dimethoxyphenyl)[3-(1-methyl-1H-pyrazol-4-yl)quinoxalin-6-yl]amino}-2-methylbutan-2-ol] gave a melting point of 150 °C. Take `COc1cc(OC)cc(N(CC2CC2)c2ccc3ncc(-c4cnn(CCCN5CCOCC5)c4)nc3c2)c1`: the melting point was 123.16 °C. In the case of `COc1cc(OC)cc(N(CC#Cc2ccnc(N)n2)c2ccc3ncc(-c4cnn(C)c4)nc3c2)c1` it was 148 °C; in that of `COc1cc(OC)cc(N(CC#Cc2nccc(OC)n2)c2ccc3ncc(-c4cnn(C)c4)nc3c2)c1`, 175 °C. In the case of `COc1cc(OC)cc(N(CC#CC2CCN(C(=O)OC(C)(C)C)CC2)c2ccc3ncc(-c4cnn(C)c4)nc3c2)c1`, the melting point is 67 °C. In the case of `COc1cc(OC)cc(N(Cc2cccnc2)c2ccc3ncc(-c4cnn(C)c4)nc3c2)c1` [Compound 568], the melting point came out at 164.5 °C. In the case of `COc1cc(OC)cc(N(CCNCC(O)C(F)(F)F)c2ccc3ncc(-c4cnn(C)c4)nc3c2)c1` (stereo not shown) it was 123 °C. In the case of `COc1cc(OC)cc(N(CC2CC2)c2ccc3ncc(-c4cnn(C(C)(C)C(=O)N5CCNCC5)c4)nc3c2)c1` it was 127.97 °C; in that of `Cn1cc(-c2cnc3ccc(N(CC4CC4)c4cccc(OC(F)(F)F)c4)cc3n2)cn1` [Compound 881], 156.5 °C; in that of `COC(=O)c1cccnc1C#CCN(c1cc(OC)cc(OC)c1)c1ccc2ncc(-c3cnn(C)c3)nc2c1`, 156 °C.

As for `COc1cc(OC)cc(N(CC2CC2)c2ccc3ncc(-c4cnn(C(C)(C)C(=O)NCCO)c4)nc3c2)c1`, the melting point was determined as 149.27 °C. In the case of `COc1cc(OC)cc(N(CC(=O)NCCO)c2ccc3ncc(-c4cnn(C)c4)nc3c2)c1` it was 201.43 °C.

As for `COc1cc(OC)cc(N(CC2CC2)c2ccc3ncc(-c4cnn(CC(=O)NCCN5CCCC5)c4)nc3c2)c1`, the melting point worked out at 162.91 °C. `COc1cc(OC)cc(N(CC2CCOCC2)c2ccc3ncc(-c4cnn(C)c4)nc3c2)c1` [Compound 356] displayed a melting point of 154.94 °C. As for `COc1cc(OC)cc(N(CC2CC2)c2ccc3ncc(-c4cnn(C5CCNCC5)c4)nc3c2)c1`, the melting point worked out at 90 °C. In turn, `COc1cc(OC)cc(N(CCCN2CC(F)(F)C2)c2ccc3ncc(-c4cnn(C)c4)nc3c2)c1` [Compound 377] returned a melting point of 112.31 °C. Molecule `COc1cc(OC)cc(N(C/C(C)=N/O)c2ccc3ncc(-c4cnn(C)c4)nc3c2)c1` [Compound 80] had a melting point of 144 °C.

Regarding `COc1cccc(N(CCNC(C)C)c2ccc3ncc(-c4cnn(C)c4)nc3c2)c1`, the melting point is 247 °C.

Molecule `COc1cc(C#N)cc(N(CC2CC2)c2ccc3ncc(-c4cnn(C)c4)nc3c2)c1` registered a melting point of 143 °C. In turn, `COc1cc(OC)cc(N(CCCN2CCC(F)(F)C2)c2ccc3ncc(-c4cn[nH]c4)nc3c2)c1` (as salt: HCl) returned a melting point of 215.29 °C.

For `COc1cc(OC)cc(N(CCCc2cc(C)ccn2)c2ccc3ncc(-c4cnn(C)c4)nc3c2)c1` [Compound 635], the melting point was 110 °C and 111 °C. Next, `COCC(O)CN(c1cc(OC)cc(OC)c1)c1ccc2ncc(-c3cnn(C(C)C)c3)nc2c1` (stereo not shown) (as salt: hydrochloric acid salt): 110 °C; `COc1cc(OC)cc(N(CCNC(C)C)c2ccc3ncc(-c4cnn(C5CCOC5)c4)nc3c2)c1` (stereo not shown) (as salt: HCl): 160 °C; `COc1cc(OCCN)cc(N(CC2CC2)c2ccc3ncc(-c4cnn(C)c4)nc3c2)c1` [Compound 32]: 80 °C. In turn, `C#CCN(c1cc(OC)cc(OC)c1)c1ccc2ncc(-c3cnn(CC4CCOCC4)c3)nc2c1` returned a melting point of 106 °C.

Turning to `CCOP(=O)(CCN(c1cc(OC)cc(OC)c1)c1ccc2ncc(-c3cnn(C)c3)nc2c1)OCC`, the melting point turned out to be 122 °C.

In the case of `Cn1cc(-c2ccc3ncc(N(CC4CC4)c4cccc(OC(F)F)c4)nc3c2)cn1` [Compound 209], the melting point worked out at 166.2 °C. Next, `COc1cc(OC)cc(N(CC#CC2(O)CCN(C(=O)OC(C)(C)C)CC2)c2ccc3ncc(-c4cnn(C)c4)nc3c2)c1` [Compound 914]: 166 °C; `[2H]C([2H])([2H])Oc1cc(OC)cc(N(CCNC(C)C)c2ccc3ncc(-c4cn[nH]c4)nc3c2)c1` [Compound 432]: 251.77 °C. For the molecule `COc1cc(OC)cc(N(CC2CC2)c2ccc3ncc(-c4cnn(CCN)c4)nc3c2)c1`, the melting point came out at 130 °C. Take `COc1ccc(N(CC2CC2)c2ccc3ncc(-c4cnn(C)c4)nc3c2)cc1OC`: the melting point was 190 °C.
